Assays:
[1] = target: BRD4-1 (Homo sapiens (Human), UniProt O60885); conditions: cited from earlier work
[2] = tested on: pAKT serine 473 in PC3 cells; test: Cellular PI3K inhibition, pAKT ELISA in PC3 cells; assay type: cell-based; conditions: Homo sapiens, PC-3; IGF-1 stimulated PC3 cells
Description: Biological testing of compounds of Formula I. Representative compounds of the invention were tested for cellular PI3K inhibitory activity (as measured by the most robust marker of pathway activity pAKT) in a prostate cancer cell line (PC3), which is summarized in Table 3. […] Two million cells from the prostate cancer line PC3 were placed into 6 cm culture dishes and allowed to grow in complete RPMI 1640 media (Invitrogen, Carlsbad, Calif., Cat.#22400-105) with 10% fetal bovine serum (Invitrogen, Carlsbad, Calif., Cat.#10438-026). After this time period the cells were serum starved for 5 hours followed by application of the test compound. Test compound was added as a DMSO (dimethyl sulfoxide) solution such that the final DMSO concentration in the cell media was less than or equal to 0.2% by volume. After 30 minutes of exposure the growth factor stimulant, human IGF-1 (PeproTech, Inc., Rocky Hill, N.J., Cat.#100-11), was added in each well. After 30 minutes of IGF-1 exposure, cells were removed from the media and cell lysates were prepared using RIPA Lysis buffer (Upstate, Lake Placid, N.Y., Cat.#20-188), keeping on ice. The pAKT serine 473 level was measured in duplicate samples of the cell lysates using commercially available assays such as the Pathscan® Sandwich ELISA kit for Ser473 pAKT (Cell Signaling, Danvers, Mass., Cat.#7160). A SpectraMax Plus spectrophotometric plate reader (Molecular Devices, Sunnydale, Calif.) was used to measure the optical density signal for pAKT at 450 nm (OD450 nm). The pAKT OD450 nm readings were normalized by total protein amount in the cell lysates determined by standard methods.

[3] = tested on: p-AKT(Ser473); test: Western blot of pAKT in SKNBE(2) cells; assay type: cell-based, human; conditions: 24 hrs treatment, 50 ng/ml IGF stimulation
Description: (§1) Cells were stimulated with 50 ng/ml IGF for 30 min and used for lysate preparation. Proteins were quantitated by the BCA protein assay (Pierce). Equal amounts of protein were resolved by polyacrylamide gels, transferred to nitrocellulose membrane and probed by Western blot with the following primary antibodies: p-AKT(Ser473), AKT (Cell Signaling Technologies), N-MYC, CyclinD1 and β-actin (Santa Cruz Biotechnology).

[4] = tested on: N-MYC; test: Western blot of N-MYC in SKNBE(2) cells; assay type: cell-based, human; conditions: 24 hrs treatment, 50 ng/ml IGF stimulation
Description: as §1

[5] = tested on: MYCN promoter region; test: Brd4 chromatin precipitation with quantitative PCR of MYCN promoter in SKNBE(2) cells; assay type: cell-based, human; conditions: 24 hours exposure
Description: MYCN amplified SKNBE(2) cells were exposed to inhibitors for 24 hours then chromatin was precipitated with Brd4 (rabbit polyclonal antibody) along with rabbit IgG as a negative control (IgG). Precipitated chromatin was analyzed for the MYCN gene (2 sites within the MYCN promoter region) by quantitative PCR and enrichment is shown as the percentage of total input DNA (FIG. 4). The negative control region primers amplify within a gene desert region approximately 1 Mb away from MYCN (MYC-N NR). Error bars represent±SEM of triplicate data. P<0.05 as compared to positive control (paired t-test).

[6] = tested on: BET bromodomains; conditions: cited from earlier work
[7] = tested on: PI3K; test: PI3K inhibition (isoform not given); assay type: biochemical
Text: (§2) Inhibitory activity can be determined routinely using known methods and also from commercial vendors offering this service for kinases and bromodomain proteins. […] In vivo, PI3K inhibition can be determined from target tissue biopsies by standard tissue processing to disrupt cells and then performing Western Blot analysis to determine the presence or absence of pAKT (substrate of PI3K) relative to a control sample. The activity of a compound of the invention as an inhibitor of a bromodomain-containing protein, such as a BET protein, such as BRD2, BRD3, BRD4, and/or BRDT, or an isoform or mutant thereof, may be determined in vitro, in vivo, or in a cell line. In vitro assays include assays that determine inhibition of bromodomain-containing proteins. Alternatively, inhibitor binding may be determined by running a competition experiment where a provided compound is incubated with a bromodomain-containing protein, such as a BET protein bound to known ligands, labeled or unlabeled. For example, bromodomain inhibition can be determined in vitro using Alpha Screen Technology (http://www.reactionbiology.com/webapps/site/NewsPDFs/Bromodomain%20Assay%20Platform%20for%20Drug%20Screening%20and%20Discovery.pdf). […]

[8] = tested on: PI-3 kinases; conditions: cited from earlier work
[9] = target: BRD4 (Homo sapiens, UniProt O60885); test: BRD4 inhibition assay (region not specified); assay type: binding
Description: The activity of a compound of the invention as an inhibitor of a bromodomain-containing protein, such as a BET protein, such as BRD2, BRD3, BRD4, and/or BRDT, or an isoform or mutant thereof, may be determined in vitro, in vivo, or in a cell line. In vitro assays include assays that determine inhibition of bromodomain-containing proteins. Alternatively, inhibitor binding may be determined by running a competition experiment where a provided compound is incubated with a bromodomain-containing protein, such as a BET protein bound to known ligands, labeled or unlabeled. For example, bromodomain inhibition can be determined in vitro using Alpha Screen Technology (http://www.reactionbiology.com/webapps/site/NewsPDFs/Bromodomain%20Assay%20Platform%20for%20Drug%20Screening%20and%20Discovery.pdf). […] Bromodomain inhibition may also be predicted by in silico modeling as described below in the Examples.
Computational modeling was performed using the commercially available FlexX (http://www.biosolveit.de/FlexX/download/flexx_brochure.pdf) software tools. […] It should be noted that the more negative the number or value of the docking score is, the stronger is the predicted binding energy at the BRD4 site that recognizes the acetyl lysine of chromatin.

[10] = target: PI3Kα (Homo sapiens (Human), UniProt P42336); test: PI3K alpha isoform inhibition; assay type: biochemical; conditions: 300 nM
[11] = target: PI3Kδ (Homo sapiens (Human), UniProt O00329); test: PI3K delta isoform inhibition; assay type: biochemical; conditions: 300 nM
Text: as §2

[12] = target: PI3Kγ (Homo sapiens (Human), UniProt P48736); test: PI3K gamma isoform inhibition; assay type: biochemical; conditions: 300 nM
[13] = tested on: HDAC; test: HDAC inhibitory activity, commercial kit; assay type: biochemical; conditions: for HDAC inhibitory activity: 1, 10, 50 μM
[14] = tested on: breast cancer stem cells; conditions: women with breast tumors with high HER2; decreased from 11%; cited from earlier work

Sequence of PI3Kα (P42336 whole entry, canonical isoform): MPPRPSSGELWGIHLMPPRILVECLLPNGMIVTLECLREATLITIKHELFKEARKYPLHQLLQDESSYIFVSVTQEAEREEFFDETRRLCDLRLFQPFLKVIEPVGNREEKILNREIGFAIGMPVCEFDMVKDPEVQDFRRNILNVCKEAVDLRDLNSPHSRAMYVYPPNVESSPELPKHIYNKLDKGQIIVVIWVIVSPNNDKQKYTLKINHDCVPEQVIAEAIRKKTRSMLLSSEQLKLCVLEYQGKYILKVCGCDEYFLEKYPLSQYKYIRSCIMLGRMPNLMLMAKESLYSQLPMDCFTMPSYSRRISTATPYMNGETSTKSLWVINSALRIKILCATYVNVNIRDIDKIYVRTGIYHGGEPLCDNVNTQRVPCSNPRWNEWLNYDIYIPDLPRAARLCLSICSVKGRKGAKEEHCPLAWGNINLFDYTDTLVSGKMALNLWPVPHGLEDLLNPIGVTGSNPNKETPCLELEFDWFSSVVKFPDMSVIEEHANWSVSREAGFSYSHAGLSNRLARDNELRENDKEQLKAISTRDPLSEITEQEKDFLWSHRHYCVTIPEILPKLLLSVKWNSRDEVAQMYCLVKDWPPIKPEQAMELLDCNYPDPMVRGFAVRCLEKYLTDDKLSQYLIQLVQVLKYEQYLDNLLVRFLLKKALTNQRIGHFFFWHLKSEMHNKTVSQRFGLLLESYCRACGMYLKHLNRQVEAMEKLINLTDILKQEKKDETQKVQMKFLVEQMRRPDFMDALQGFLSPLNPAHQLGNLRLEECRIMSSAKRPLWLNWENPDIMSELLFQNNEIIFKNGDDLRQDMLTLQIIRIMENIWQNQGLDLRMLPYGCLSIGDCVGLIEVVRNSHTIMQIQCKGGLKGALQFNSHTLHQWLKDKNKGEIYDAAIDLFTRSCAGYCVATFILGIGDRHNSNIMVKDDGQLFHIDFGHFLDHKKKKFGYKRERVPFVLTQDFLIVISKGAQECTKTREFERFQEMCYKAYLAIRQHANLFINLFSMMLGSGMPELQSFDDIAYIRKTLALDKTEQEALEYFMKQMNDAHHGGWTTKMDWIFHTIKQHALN
Sequence of PI3Kα (P27986 whole entry partner, canonical isoform): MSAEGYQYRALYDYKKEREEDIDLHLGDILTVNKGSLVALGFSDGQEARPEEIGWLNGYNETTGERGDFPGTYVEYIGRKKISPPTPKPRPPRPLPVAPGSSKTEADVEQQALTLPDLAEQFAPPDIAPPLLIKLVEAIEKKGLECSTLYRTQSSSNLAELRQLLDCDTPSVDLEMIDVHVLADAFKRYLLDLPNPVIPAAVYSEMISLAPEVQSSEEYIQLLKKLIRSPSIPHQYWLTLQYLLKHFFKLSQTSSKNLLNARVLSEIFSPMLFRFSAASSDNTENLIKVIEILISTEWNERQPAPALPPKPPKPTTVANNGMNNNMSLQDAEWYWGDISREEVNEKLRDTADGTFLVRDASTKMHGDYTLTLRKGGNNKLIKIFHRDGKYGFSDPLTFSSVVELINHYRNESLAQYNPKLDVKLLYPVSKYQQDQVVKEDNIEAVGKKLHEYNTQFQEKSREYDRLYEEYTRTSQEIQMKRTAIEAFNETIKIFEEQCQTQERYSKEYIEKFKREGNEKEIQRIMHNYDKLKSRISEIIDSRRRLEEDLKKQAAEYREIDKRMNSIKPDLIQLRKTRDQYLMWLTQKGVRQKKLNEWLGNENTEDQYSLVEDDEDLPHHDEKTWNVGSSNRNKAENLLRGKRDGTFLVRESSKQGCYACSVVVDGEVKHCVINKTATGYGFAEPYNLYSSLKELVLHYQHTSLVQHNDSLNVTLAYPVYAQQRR
Sequence of PI3Kδ (O00329 whole entry, canonical isoform): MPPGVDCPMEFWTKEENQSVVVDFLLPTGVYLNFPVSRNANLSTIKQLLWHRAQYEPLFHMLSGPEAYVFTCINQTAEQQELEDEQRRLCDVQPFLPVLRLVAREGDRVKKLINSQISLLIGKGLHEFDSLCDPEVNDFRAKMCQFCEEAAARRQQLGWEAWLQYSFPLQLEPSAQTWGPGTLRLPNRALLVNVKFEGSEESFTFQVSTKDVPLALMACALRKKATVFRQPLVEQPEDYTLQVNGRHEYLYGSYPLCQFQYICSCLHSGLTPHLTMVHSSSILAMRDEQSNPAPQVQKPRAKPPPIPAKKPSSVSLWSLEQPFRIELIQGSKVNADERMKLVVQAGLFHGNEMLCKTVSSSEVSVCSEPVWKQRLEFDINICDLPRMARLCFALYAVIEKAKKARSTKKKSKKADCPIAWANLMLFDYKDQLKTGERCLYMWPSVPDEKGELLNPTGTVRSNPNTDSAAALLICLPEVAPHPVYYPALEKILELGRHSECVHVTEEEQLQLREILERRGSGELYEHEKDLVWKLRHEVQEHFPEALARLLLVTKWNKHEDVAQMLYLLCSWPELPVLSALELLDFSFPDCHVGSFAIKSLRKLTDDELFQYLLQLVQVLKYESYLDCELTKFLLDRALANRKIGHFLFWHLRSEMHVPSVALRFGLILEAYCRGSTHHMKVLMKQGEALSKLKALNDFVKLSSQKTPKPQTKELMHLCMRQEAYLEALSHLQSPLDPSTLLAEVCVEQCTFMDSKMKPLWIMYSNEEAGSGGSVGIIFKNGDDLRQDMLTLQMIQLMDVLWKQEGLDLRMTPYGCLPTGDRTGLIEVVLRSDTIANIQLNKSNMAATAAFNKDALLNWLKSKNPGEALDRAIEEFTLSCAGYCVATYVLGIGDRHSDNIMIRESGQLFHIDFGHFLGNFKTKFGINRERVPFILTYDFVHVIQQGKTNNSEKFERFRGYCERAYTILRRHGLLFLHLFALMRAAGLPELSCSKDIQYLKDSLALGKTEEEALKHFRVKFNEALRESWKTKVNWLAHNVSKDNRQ
Sequence of PI3Kδ (P27986 whole entry partner, canonical isoform): as the sequence (P27986 whole entry partner, canonical isoform) above
Sequence of PI3Kγ (P48736 whole entry, canonical isoform): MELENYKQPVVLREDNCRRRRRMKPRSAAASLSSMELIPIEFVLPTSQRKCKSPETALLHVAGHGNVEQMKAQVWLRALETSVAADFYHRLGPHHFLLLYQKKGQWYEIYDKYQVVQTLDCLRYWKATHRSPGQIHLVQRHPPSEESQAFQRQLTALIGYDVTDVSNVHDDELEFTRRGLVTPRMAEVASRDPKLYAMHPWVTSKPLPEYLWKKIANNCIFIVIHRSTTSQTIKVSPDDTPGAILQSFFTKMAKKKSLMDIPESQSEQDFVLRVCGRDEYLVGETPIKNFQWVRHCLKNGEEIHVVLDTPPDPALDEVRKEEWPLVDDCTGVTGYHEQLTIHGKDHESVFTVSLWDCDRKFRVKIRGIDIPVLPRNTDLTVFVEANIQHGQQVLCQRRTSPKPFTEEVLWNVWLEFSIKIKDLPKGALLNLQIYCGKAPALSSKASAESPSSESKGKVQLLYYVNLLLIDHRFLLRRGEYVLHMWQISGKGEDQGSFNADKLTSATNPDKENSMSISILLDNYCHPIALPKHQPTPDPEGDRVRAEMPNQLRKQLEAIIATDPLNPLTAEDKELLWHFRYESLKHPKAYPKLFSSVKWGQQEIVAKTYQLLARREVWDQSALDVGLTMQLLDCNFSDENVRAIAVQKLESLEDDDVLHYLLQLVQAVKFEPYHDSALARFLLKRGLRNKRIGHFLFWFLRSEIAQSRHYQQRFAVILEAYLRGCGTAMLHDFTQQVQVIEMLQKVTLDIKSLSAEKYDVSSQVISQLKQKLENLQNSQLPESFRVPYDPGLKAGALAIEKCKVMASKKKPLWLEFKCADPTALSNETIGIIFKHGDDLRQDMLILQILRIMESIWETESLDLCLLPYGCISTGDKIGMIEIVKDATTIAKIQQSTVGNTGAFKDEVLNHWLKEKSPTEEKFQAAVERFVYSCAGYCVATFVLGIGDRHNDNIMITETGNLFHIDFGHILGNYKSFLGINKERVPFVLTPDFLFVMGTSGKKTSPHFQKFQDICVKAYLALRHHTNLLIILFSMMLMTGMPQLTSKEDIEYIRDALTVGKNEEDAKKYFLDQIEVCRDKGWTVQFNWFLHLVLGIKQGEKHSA

Cc1cnc(Nc2ccc(OCCN3CCCC3)cc2)nc1Nc1cccc(S(=O)(=O)NC(C)(C)C)c1 [TG-101348]
BRD4-1 inhibition [1]: some degree of BRD4-1 inhibitory activity

O=c1cc(N2CCOCC2)oc2c(-c3ccc4c(c3)OCO4)csc12 [Cmpd 7]
IC50 [2]: 0.54 µM

O=c1cc(N2CCOCC2)oc2c(-c3ccccc3)cccc12 [LY294002, 2-(4-morpholinyl)-8-phenyl-4H-1-benzopyran-4-one]
pAKT level by Western blot [3]: decreased MYCN and pAKT | MYCN quantity by Western blot [4]: decreased MYCN | MYCN expression (Brd4-precipitated chromatin, MYCN promoter PCR) [5]: significantly repressed MYCN expression | BET bromodomain inhibition [6]: modestly inhibit

O=c1cc(N2CCOCC2)oc2c(-c3ccc(Cl)cc3)csc12 [Cmpd 17]
IC50 [2]: 1.41 µM

CN(c1ccccc1CNc1nc(Nc2ccc3c(c2)CC(=O)N3)ncc1C(F)(F)F)S(C)(=O)=O [PF-431396]
BRD4-1 inhibition [1]: some degree of BRD4-1 inhibitory activity

COc1cccc(-c2csc3c(=O)cc(N4CCOCC4)oc23)c1 [Cmpd 29]
IC50 [2]: 1.07 µM

COC(=O)c1scc(-c2csc3c(=O)cc(N4CCOCC4)oc23)c1O [Cmpd 21]
IC50 [2]: 1.04 µM

O=c1cc(N2CCOCC2)oc2c(-c3ccco3)csc12 [Cmpd 4]
IC50 [2]: 0.93 µM

Cc1sc2c(c1C)C(c1ccc(Cl)cc1)=N[C@@H](CC(=O)OC(C)(C)C)c1nnc(C)n1-2 [JQ-1]
PI3K inhibition [7]: does not inhibit PI3K | MYCN quantity by Western blot [4]: inhibited only MYCN quantities | MYCN expression (Brd4-precipitated chromatin, MYCN promoter PCR) [5]: significantly repressed MYCN expression

Cc1c(Cn2c(C)nc3c(C(=O)O)cc(N4CCOCC4)cc32)cccc1C(F)(F)F [GSK2636771]
BRD4-1 inhibition [1]: some degree of BRD4-1 inhibitory activity

Cc1cccc(-c2csc3c(=O)cc(N4CCOCC4)oc23)c1 [Cmpd 16]
IC50 [2]: 1.23 µM

O=c1cc(N2CCOCC2)oc2c(-c3cc4ccccc4[nH]3)csc12 [Cmpd 12]
IC50 [2]: 1.57 µM

O=c1cc(N2CCOCC2)oc2c(Cc3ccccc3)csc12 [Cmpd 1]
IC50 [2]: 0.864 µM

O=c1cc(N2CCNCC2)oc2c(-c3ccccc3)cccc12 [LY303511]
MYCN quantity by Western blot [4]: inhibited only MYCN quantities | MYCN expression (Brd4-precipitated chromatin, MYCN promoter PCR) [5]: significantly repressed MYCN expression | PI3K inhibition activity [8]: lose PI3K inhibition activity | BET bromodomain inhibition [6]: retain BET bromodomain inhibition

O=c1cc(N2CCOCC2)oc2c(C#Cc3ccsc3)csc12 [Cmpd 23]
IC50 [2]: 1.27 µM

COc1ccc(-c2csc3c(=O)cc(N4CCOCC4)oc23)cc1 [Cmpd 8]
IC50 [2]: 0.98 µM

Nc1cccc(-c2csc3c(=O)cc(N4CCOCC4)oc23)c1 [Cmpd 11, 3-(3-Amino-phenyl)-5-morpholin-4-yl-thieno[3,2-b]pyran-7-one]
IC50 [2]: 6.32 µM

CC[C@H](Nc1ncnc2[nH]cnc12)c1nc2cccc(F)c2c(=O)n1-c1ccccc1 [CAL101]
BRD4 inhibition [9]: no BRD4 inhibition | pAKT level by Western blot [3]: decreased pAKT | MYCN expression (Brd4-precipitated chromatin, MYCN promoter PCR) [5]: did not

O=C(NO)c1ccc(-c2csc3c(=O)cc(N4CCOCC4)oc23)cc1 [Cmpd 118]
inhibition at 0.3 µM [10]: 76% | inhibition at 0.3 µM [11]: 80% | inhibition at 0.3 µM [12]: 30% | HDAC activity inhibition versus control ([13]; 1 μM): 17% | HDAC activity inhibition versus control ([13]; 10 μM): 25% | HDAC activity inhibition versus control ([13]; 50 μM): 41% | HDAC inhibitory activity [13]: significant HDAC inhibitory activity

O=c1cc(N2CCOCC2)oc2c(-c3ccoc3)csc12 [Cmpd 27]
IC50 [2]: 3.23 µM

Cc1ccc(-c2csc3c(=O)cc(N4CCOCC4)oc23)cc1 [Cmpd 15]
IC50 [2]: 0.948 µM

N#Cc1ccc(-c2csc3c(=O)cc(N4CCOCC4)oc23)cc1 [Cmpd 5]
IC50 [2]: 7.3 µM

CN1CCOc2cc(-c3csc4c(=O)cc(N5CCOCC5)oc34)ccc21 [Cmpd 22]
IC50 [2]: 0.609 µM

O=c1cc(N2CCOCC2)oc2c(-c3ccc4[nH]ccc4c3)csc12 [Cmpd 19]
IC50 [2]: 0.901 µM

O=c1cc(N2CCOCC2)oc2c(-c3cccs3)csc12 [Cmpd 14]
IC50 [2]: 1.02 µM

O=c1cc(N2CCOCC2)oc2c(-c3ccccc3)csc12 [Cmpd 6]
IC50 [2]: 0.55 µM

Cc1cnc(Nc2ccc(N3CCN(C)CC3)cc2)nc1Nc1cccc(S(=O)(=O)NC(C)(C)C)c1 [TG101209]
BRD4-1 inhibition [1]: potently inhibit

Cn1c(=O)n(-c2ccc(C(C)(C)C#N)cc2)c2c3cc(-c4cnc5ccccc5c4)ccc3ncc21 [BEZ235]
pAKT level by Western blot [3]: decreased pAKT

Nc1cc(C(F)(F)F)c(-c2cc(N3CCOCC3)nc(N3CCOCC3)n2)cn1 [BKM120, reference compound]
BRD4 inhibition [9]: no BRD4 inhibition | pAKT level by Western blot [3]: decreased pAKT

CC(C)n1nc(-c2cc3cc(O)ccc3[nH]2)c2c(N)ncnc21 [PP-242]
BRD4-1 inhibition [1]: some degree of BRD4-1 inhibitory activity

O=c1cc(N2CCOCC2)oc2c(-c3ccncc3)csc12 [Cmpd 2]
IC50 [2]: 3.03 µM

O=c1cc(N2CCOCC2)oc2c(-c3ccc(Cl)c(Cl)c3)csc12 [Cmpd 18]
IC50 [2]: 0.913 µM

CS(=O)(=O)CCNCc1ccc(-c2ccc3ncnc(Nc4ccc(OCc5cccc(F)c5)c(Cl)c4)c3c2)o1 [Lapatinib]
breast cancer stem cells in biopsies after treatment [14]: 5 % of cells

CN(C)c1ccc(-c2csc3c(=O)cc(N4CCOCC4)oc23)cc1 [Cmpd 9]
IC50 [2]: 0.78 µM

O=c1cc(N2CCOCC2)oc2c(-c3cccnc3)csc12 [Cmpd 3]
IC50 [2]: 4.87 µM

COC(=O)c1ccc(-c2csc3c(=O)cc(N4CCOCC4)oc23)cc1 [Cmpd 44, Methyl 4-(5-morpholino-7-oxo-7H-thieno[3,2-b]pyran-3-yl)benzoate]
inhibition at 0.3 µM [10]: 53% | inhibition at 0.3 µM [11]: 81% | inhibition at 0.3 µM [12]: 26% | BRD4 inhibition [9]: showed activity against BRD4 regions 1 and 2 | HDAC inhibitory activity [13]: No inhibitor activity

O=c1cc(N2CCOCC2)oc2c(C#CCO)csc12 [Cmpd 24]
IC50 [2]: 4.61 µM

O=c1cc(N2CCOCC2)oc2c(-c3ccsc3)csc12 [Cmpd 26]
IC50 [2]: 1.56 µM

Reference: patent publication US10308662B2, “Thienopyranones as kinase and epigenetic inhibitors” (SignalRx Pharmaceuticals, Inc., priority 2014, dated 2019)
